Values after ≈ are worked out from the molar mass of the structure shown. Where two headings read alike, the source gives them in different places.
Legend:
[1] = target: T1, beta-catenin/TCF4 engagement (Homo sapiens, UniProt P35222); experiment: Nano-BRET target engagement assay (B-cat-Halo & TCF4-Luc in HEK293 cells); assay type: cell-based; details: absolute IC50; read-out: NanoBRET Abs IC50
T1 construct: expressed in transfected cells; host or cells: HEK293
T1 sequence (P35222 1-781): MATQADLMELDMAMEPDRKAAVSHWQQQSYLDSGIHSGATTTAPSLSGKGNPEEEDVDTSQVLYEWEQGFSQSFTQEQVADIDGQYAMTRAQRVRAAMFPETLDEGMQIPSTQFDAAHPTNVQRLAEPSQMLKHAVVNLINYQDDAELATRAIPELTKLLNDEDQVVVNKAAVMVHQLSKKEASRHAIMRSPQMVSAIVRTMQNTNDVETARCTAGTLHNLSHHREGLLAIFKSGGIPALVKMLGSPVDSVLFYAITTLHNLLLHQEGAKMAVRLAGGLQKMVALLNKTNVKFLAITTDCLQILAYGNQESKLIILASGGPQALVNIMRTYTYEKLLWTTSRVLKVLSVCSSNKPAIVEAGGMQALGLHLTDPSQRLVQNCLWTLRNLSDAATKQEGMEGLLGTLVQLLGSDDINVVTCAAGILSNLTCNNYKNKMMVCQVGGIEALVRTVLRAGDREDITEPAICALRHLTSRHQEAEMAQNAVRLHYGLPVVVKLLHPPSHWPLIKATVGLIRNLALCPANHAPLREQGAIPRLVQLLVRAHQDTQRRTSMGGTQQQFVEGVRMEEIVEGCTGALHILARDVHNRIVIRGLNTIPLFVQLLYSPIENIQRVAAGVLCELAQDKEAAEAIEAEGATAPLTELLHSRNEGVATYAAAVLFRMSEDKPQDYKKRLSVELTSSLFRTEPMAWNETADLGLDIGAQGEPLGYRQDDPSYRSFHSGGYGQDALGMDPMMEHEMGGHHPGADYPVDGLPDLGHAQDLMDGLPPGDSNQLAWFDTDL

[2] = target: T2, full-length beta-Catenin (Uniprot ID P35222) (Homo sapiens, UniProt P35222); experiment: Fluorescence polarization IC50 (beta-catenin / 5FAM-TCF4 10-53 competition); assay type: binding; details: fluorescence polarization; read-out: beta-Catenin FP IC50
T2 construct: 10 nM full-length beta-Catenin (Uniprot ID P35222)
T2 sequence (P35222 1-781): T1 sequence (P35222 1-781)

Solubility in PBS = assay type: physicochemical
How it was run: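 Solubility is derived from HPLC peak areas: the ratio of the PBS supernatant peak to a 50 μM DMSO peptide peak, times 50 uM.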

Row | Compound | IC50 [1] | IC50 [2] | Solubility (Solubility in PBS; Solubility (uM)) | Solubility (Solubility in PBS)
1 | CC(=O)N1CCC[C@]12CC=CCCCC1(CCCC=CCCCOC(=O)N3CC[C@@](C(=O)N[C@@H](Cc4ccccc4F)C(=O)N[C@@H](Cc4csc5ccccc45)C(=O)N[C@@H](CCC(N)=O)C(N)=O)(C3)NC(=O)[C@H](Cc3ccccc3)NC(=O)[C@H](Cc3ccccc3)NC(=O)[C@H](C)NC(=O)[C@H](C)NC(=O)[C@H](CC(=O)O)NC(=O)[C@H](CC(=O)O)NC1=O)NC(=O)[C@H](CC(C)(C)C)NC(=O)[C@H](CC(=O)O)NC2=O (stereo partly drawn) [I-1322, Ac-PL3-Asp-Npg-B5-Asp-Asp-Ala-Ala-Phe-Phe-PyrS2-2FF-BztA-Gln-NH2] | 9.1 µM | 11 nM | 33 µM (≈ 64.8 µg/mL) | 
2 | CC(=O)N1CCC[C@]12CC=CCCCC1(CCCC=CCCCOC(=O)N3CC[C@@](C(=O)N[C@@H](Cc4ccsc4)C(=O)N[C@@H](Cc4csc5ccccc45)C(=O)N[C@H](CO)[C@@H](C)O)(C3)NC(=O)[C@H](Cc3ccccc3C(F)(F)F)NC(=O)[C@H](Cc3ccccc3)NC(=O)[C@H](C)NC(=O)[C@H](C)NC(=O)[C@H](CC(=O)O)NC(=O)[C@H](CC(=O)O)NC1=O)NC(=O)[C@H](CC(C)(C)C)NC(=O)[C@H](CC(=O)O)NC2=O (stereo partly drawn) [I-1370, Ac-PL3-Asp-Npg-B5-Asp-Asp-Ala-Ala-Phe-2F3MeF-PyrS2-3Thi-BztA-Thro1] | 10 µM | 18 nM |  | 10 µM (≈ 19.8 µg/mL)
3 | CC(=O)N1CCC[C@]12CC=CCCCC1(CCCC=CCCCOC(=O)N3CC[C@@](C(=O)N[C@@H](Cc4ccccc4Cl)C(=O)N[C@@H](Cc4csc5ccccc45)C(=O)N[C@H](CO)[C@@H](C)O)(C3)NC(=O)[C@H]([C@@H](C)O)NC(=O)[C@H](Cc3ccccc3)NC(=O)[C@H](C)NC(=O)[C@H](C)NC(=O)[C@H]([C@@H](C)O)NC(=O)[C@H](CC(=O)O)NC1=O)NC(=O)[C@H](CC1CCCCC1)NC(=O)[C@H](CC(=O)O)NC2=O (stereo partly drawn) [I-1310, Ac-PL3-Asp-Cha-B5-Asp-Thr-Ala-Ala-Phe-Thr-PyrS2-2ClF-BztA-Thro1] | > 20 µM | 124 nM |  | 10 µM (≈ 19.1 µg/mL)
4 | COCCC(=O)N1CCC[C@]12CC=CCCCC1(CCCC=CCCCCCC[C@@](C)(C(=O)N[C@@H](Cc3ccccc3Cl)C(=O)N[C@@H](Cc3csc4ccccc34)C(=O)N[C@@H](CCC(N)=O)C(N)=O)NC(=O)[C@H]([C@@H](C)O)NC(=O)[C@H](Cc3ccccc3)NC(=O)[C@H](C)NC(=O)[C@H](C)NC(=O)[C@H](CC(=O)O)NC(=O)[C@H](CC(=O)O)NC1=O)NC(=O)[C@H](CC(C)(C)C)NC(=O)[C@H](CC(=O)O)NC2=O (stereo partly drawn) [I-1261, MeOPr-PL3-Asp-Npg-B5-Asp-Asp-Ala-Ala-Phe-Thr-S8-2C1F-BztA-Gln-NH2] | 19.8 µM | 31 nM |  | 50 µM (≈ 96.7 µg/mL)
5 | CC(=O)N1CCC[C@]12CC=CCCCC1(CCCC=CCCCOC(=O)N3CC[C@@](C(=O)N[C@@H](Cc4ccsc4)C(=O)N[C@@H](Cc4csc5ccccc45)C(=O)N[C@@H](CCC(N)=O)C(N)=O)(C3)NC(=O)[C@H](CC(C)C)NC(=O)[C@H](Cc3ccccc3C#N)NC(=O)[C@H](C)NC(=O)[C@H](C)NC(=O)[C@H](CC(=O)O)NC(=O)[C@H](CC(=O)O)NC1=O)NC(=O)[C@H](CC(C)(C)C)NC(=O)[C@H](CC(=O)O)NC2=O (stereo partly drawn) [I-1200, Ac-PL3-Asp-Npg-B5-Asp-Asp-Ala-Ala-2CNF-Leu-PyrS2-3Thi-BztA-Gln-NH2] | > 20 µM | 99 nM | 48 µM (≈ 93.2 µg/mL) | 
6 | CC(=O)N1CCC[C@]12CC=CCCCC1(CCCC=CCCCOC(=O)N3CC[C@@](C(=O)N[C@@H](Cc4ccsc4)C(=O)N[C@@H](Cc4csc5ccccc45)C(=O)N[C@@H](CCC(N)=O)C(N)=O)(C3)NC(=O)[C@H]([C@@H](C)O)NC(=O)[C@H](Cc3ccccc3)NC(=O)[C@H](C)NC(=O)[C@H](C)NC(=O)[C@H]([C@@H](C)O)NC(=O)[C@H](CC(=O)O)NC1=O)NC(=O)[C@H](CC(C)(C)C)NC(=O)[C@H](CC(=O)O)NC2=O (stereo partly drawn) [I-1166, Ac-PL3-Asp-Npg-B5-Asp-Thr-Ala-Ala-Phe-Thr-PyrS2-3Thi-BztA-Gln-NH2] | 14.6 µM | 14 nM | 14 µM (≈ 26.5 µg/mL) | 
7 | CC(=O)N1CCC[C@]12CC=CCCCC1(CCCC=CCCCOC(=O)N3CC[C@@](C(=O)N[C@@H](Cc4ccccc4Cl)C(=O)N[C@@H](Cc4csc5ccccc45)C(=O)N[C@@H](C(N)=O)[C@H](C)O)(C3)NC(=O)[C@H](CC(C)C)NC(=O)[C@H](Cc3ccccc3)NC(=O)[C@H](C)NC(=O)[C@H](C)NC(=O)[C@H](CC(=O)O)NC(=O)[C@H](CC(=O)O)NC1=O)NC(=O)[C@H](CC1CCCCC1)NC(=O)[C@H](CC(=O)O)NC2=O (stereo partly drawn) [I-1140, Ac-PL3-Asp-Cha-B5-Asp-Asp-Ala-Ala-Phe-Leu-PyrS2-2C1F-BztA-dThr-NH2] | 32.5 µM | 33 nM |  | 10 µM (≈ 19.4 µg/mL)
8 | COCCOCCC(=O)N1CCC[C@]12CC=CCCCC1(CCCC=CCCCOC(=O)N3CC[C@@](C(=O)N[C@@H](Cc4ccccc4Cl)C(=O)N[C@@H](Cc4csc5ccccc45)C(=O)N[C@@H](C(N)=O)[C@H](C)O)(C3)NC(=O)[C@H](CC(N)=O)NC(=O)[C@H](Cc3ccccc3)NC(=O)[C@H](C)NC(=O)[C@H](C)NC(=O)[C@H](CC(=O)O)NC(=O)[C@H](CC(=O)O)NC1=O)NC(=O)[C@H](CC(C)(C)C)NC(=O)[C@H](CC(=O)O)NC2=O (stereo partly drawn) [I-1253, mPEG2-PL3-Asp-Npg-B5-Asp-Asp-Ala-Ala-Phe-Asn-PyrS2-2C1F-BztA-dThr-NH2] | > 20 µM | 14 nM | 42 µM (≈ 84.3 µg/mL) | 
9 | CC(=O)N1CCC[C@]12CC=CCCCC1(CCCC=CCCCOC(=O)N3CC[C@@](C(=O)N[C@@H](Cc4ccccc4Cl)C(=O)N[C@@H](Cc4csc5ccccc45)C(=O)N[C@@H](CO)C(N)=O)(C3)NC(=O)[C@H]([C@@H](C)O)NC(=O)[C@H](Cc3ccccc3)NC(=O)[C@H](C)NC(=O)[C@H](CC(C)C)NC(=O)[C@H](CC(=O)O)NC(=O)[C@H](CC(=O)O)NC1=O)NC(=O)[C@H](CC1CCCCC1)NC(=O)[C@H](CC(=O)O)NC2=O (stereo partly drawn) [I-1150, Ac-PL3-Asp-Cha-B5-Asp-Asp-Leu-Ala-Phe-Thr-PyrS2-2C1F-BztA-Ser-NH2] | 21.4 µM | 12 nM | 18 µM (≈ 35.3 µg/mL) | 
10 | CC(=O)N1CCC[C@]12CC=CCCCC1(CCCC=CCCCOC(=O)N3CC[C@@](C(=O)N[C@@H](Cc4ccccc4)C(=O)N[C@@H](Cc4csc5ccccc45)C(=O)N[C@@H](CO)C(N)=O)(C3)NC(=O)[C@H]([C@@H](C)O)NC(=O)[C@H](Cc3ccccc3)NC(=O)[C@H](CC(C)C)NC(=O)[C@H](C)NC(=O)[C@H]([C@@H](C)O)NC(=O)[C@H](CC(=O)O)NC1=O)NC(=O)[C@H](CC(C)(C)C)NC(=O)[C@H](CC(=O)O)NC2=O (stereo partly drawn) [I-1265, Ac-PL3-Asp-Npg-B5-Asp-Thr-Ala-Leu-Phe-Thr-PyrS2-Phe-BztA-Ser-NH2] | 22.7 µM | 152 nM |  | 10 µM (≈ 18.9 µg/mL)
11 | CC(=O)N1CCC[C@]12CC=CCCCC1(CCCC=CCCCOC(=O)N3CC[C@@](C(=O)N[C@@H](Cc4ccccc4C(N)=O)C(=O)N[C@@H](Cc4csc5ccccc45)C(=O)N[C@@H](CCC(N)=O)C(N)=O)(C3)NC(=O)[C@H](CC(C)C)NC(=O)[C@H](Cc3ccccc3)NC(=O)[C@H](C)NC(=O)[C@H](C)NC(=O)[C@H](CC(=O)O)NC(=O)[C@H](CC(=O)O)NC1=O)NC(=O)[C@H](CC(C)(C)C)NC(=O)[C@H](CC(=O)O)NC2=O (stereo partly drawn) [I-1315, Ac-PL3-Asp-Npg-B5-Asp-Asp-Ala-Ala-Phe-Leu-PyrS2-2cbmF-BztA-Gln-NH2] | 7.2 µM | 13 nM |  | 10 µM (≈ 19.5 µg/mL)
12 | CC(=O)N1CCC[C@]12CC=CCCCC1(CCCC=CCCCOC(=O)N3CC[C@@](C(=O)N[C@@H](Cc4ccccc4C(F)(F)F)C(=O)N[C@@H](Cc4csc5ccccc45)C(=O)N[C@@H](CCC(N)=O)C(N)=O)(C3)NC(=O)[C@H](CC(N)=O)NC(=O)[C@H](Cc3ccccc3)NC(=O)[C@H](C)NC(=O)[C@H](C)NC(=O)[C@H](CC(=O)O)NC(=O)[C@H](CC(=O)O)NC1=O)NC(=O)[C@H](CC(C)(C)C)NC(=O)[C@H](CC(=O)O)NC2=O (stereo partly drawn) [I-1317, Ac-PL3-Asp-Npg-B5-Asp-Asp-Ala-Ala-Phe-Asn-PyrS2-2F3MeF-BztA-Gln-NH2] | 9.7 µM | 9 nM | 49 µM (≈ 97 µg/mL) | 
13 | CC(=O)N1CCC[C@]12CC=CCCCC1(CCCC=CCCCOC(=O)N3CC[C@@](C(=O)N[C@@H](Cc4ccccc4Cl)C(=O)N[C@@H](Cc4csc5ccccc45)C(=O)N[C@@H](CCC(N)=O)C(N)=O)(C3)NC(=O)[C@H](Cc3cccc(C(F)(F)F)c3)NC(=O)[C@H](Cc3ccccc3)NC(=O)[C@H](C)NC(=O)[C@H](C)NC(=O)[C@H](CC(=O)O)NC(=O)[C@H](CC(=O)O)NC1=O)NC(=O)[C@H](CC(C)(C)C)NC(=O)[C@H](CC(=O)O)NC2=O (stereo partly drawn) [I-1368, Ac-PL3-Asp-Npg-B5-Asp-Asp-Ala-Ala-Phe-3F3MeF-PyrS2-2C1F-BztA-Gln-NH2] | 14.2 µM | 44 nM |  | 10 µM (≈ 20.5 µg/mL)

Source: patent US20240116985A1, “STAPLED PEPTIDES AND METHODS THEREOF” (priority 2020, published 2024)
